How the values were obtained:
Assay type in all cases: in vivo
[1] = system: Lolium multiflorum Lamk.; test: Composition activity test, soil sealing treatment; settings: B 300 g a.i./ha
Description: (§1) are as follows, and the others were purchased from reagent companies. The technical materials were all dissolved in acetone and diluted with an aqueous solution containing 0.1% emulsifier Tween-80. The dilution is performed as required.
(§2) Weeds are cultivated in a controllable sunlight greenhouse at 20 to 30° C., in natural light, and relative humidity of 57% to 72%. […] The test soil was placed quantitatively to 3/4 of the pots and then watered from the bottom of the pots to completely wet the soil to saturation. The test weed seeds were germinated, and uniformly and quantitatively sowed on the surface, then covered with 0.5-2 cm soil according to the seed size, and ready-for use 72 hours after sowing.
(§3) 3 pots with 30 weed seeds per pot were treated in one treatment with 4 replications per treatment.
(§4) The well-sowed weeds were evenly placed on a platform with an area of 0.5 m^2, and a solution of agents was sprayed on the soil thereof by the 3WP-2000-type walking spray tower at a dosage of 450 kg/ha and at a spray pressure of 0.3 MPa. After all the solution was sprayed, the valve was closed. After 30 seconds, the door of the spray tower was opened, and the nutritional bowl was taken out. Then the valve was opened, and the spray tube was cleaned by spraying 50 ml of water.
(§5) A method for investigating absolute number was employed, wherein whole seedlings of survival weeds were cut off with a blade along the soil surface, and the fresh weight of the weeds was weighed with an analytical balance. For dead weeds, the fresh weight thereof was zero.
(§6) The investigation was performed after 21 days of the treatment for only once.
(§7) An optimum ratio of the two active ingredients was determined by the actual control effect, characteristics of herbicides, and balance of a corresponding formula. Wherein, in the formula, X represented the fresh weight inhibition rate of the active ingredient A in a dosage of P, and Y represented the fresh weight inhibition rate of the active ingredient B in a dosage of Q. The statistical results were shown in the table 6.

[2] = system: Echinochloa caudata Roshev.; test: Composition activity test, post-emergence foliage spray
[3] = system: Descurainia sophia; test: Composition activity test, soil sealing treatment
Description: as §1, §2, §3, §4, §5, §6, §7

[4] = system: Eleusine indica; test: Composition activity test, post-emergence foliage spray
[5] = system: Leptochloa chinensis; test: Composition activity test, soil sealing treatment
Description: as §1, §2, §3, §4, §5, §6, §7

[6] = system: Eriochloa villosa; test: Composition activity test, post-emergence foliage spray
[7] = system: Capsella bursa-pastoris; test: as above
[8] = system: Cyperus difformis; test: as above
[9] = system: Conyza Canadensis; test: as above
[10] = system: Cyperus serotinus; test: as above
[11] = system: Amaranthus retroflexus; test: Composition activity test, soil sealing treatment
Description: as §1, §2, §3, §4, §5, §6, §7

[12] = system: Echinochloa crusgalli; test: Composition activity test, soil sealing treatment; settings: B 600 g a.i./ha
Description: as §1, §2, §3, §4, §5, §6, §7

Structure (SMILES): Cc1ccccc1CO[C@@H]1C[C@@]2(C(C)C)CC[C@]1(C)O2 (racemic) [cinmethylin]
- Control effect (%) of B applied alone (B) [1]: 33.7%

Structure (SMILES): CCC[S@@+]([O-])c1c(C(F)(F)F)ccc(C(=O)Nc2nnc(C)o2)c1F [Cpd B1]
- Control effect (%) of B applied alone (B) ([2]; B 7.5 g a.i./ha): 47.8%

Structure (SMILES): COP(=S)(OC)SCC(=O)N(c1ccc(Cl)cc1)C(C)(C)C [anilofos]
- Control effect (%) of B applied alone (B) ([3]; B 75 g a.i./ha): 38.3%

Structure (SMILES): CC1(C)CON(Cc2ccc(Cl)cc2Cl)C1=O [bixlozone]
- Control effect (%) of B applied alone (B) ([4]; B 180 g a.i./ha): 36.7%

Structure (SMILES): CCCCOCN(C(=O)CCl)c1c(CC)cccc1CC [butachlor]
- Control effect (%) of B applied alone (B) ([3]; B 225 g a.i./ha): 42.2%

Structure (SMILES): CCC(C)Nc1c([N+](=O)[O-])cc(C(C)(C)C)cc1[N+](=O)[O-] (stereo not drawn) [butralin]
- Control effect (%) of B applied alone (B) ([5]; B 180 g a.i./ha): 47.4%

Structure (SMILES): CCSC(C)CC1CC(=O)C(/C(CC)=N/OC/C=C/Cl)=C(O)C1 (stereo not drawn) [clethodim]
- Control effect (%) of B applied alone (B) ([6]; B 30 g a.i./ha): 35.5%

Structure (SMILES): CC1(C)CON(Cc2ccccc2Cl)C1=O [clomazone]
- Control effect (%) of B applied alone (B) ([4]; B 150 g a.i./ha): 46.5%

Structure (SMILES): O=C(Nc1ccc(F)cc1F)c1cccnc1Oc1cccc(C(F)(F)F)c1 [diflufenican]
- Control effect (%) of B applied alone (B) ([7]; B 75 g a.i./ha): 33.1%

Structure (SMILES): c1cc[n+]2c(c1)-c1cccc[n+]1CC2 [diquat dibromide monohydrate]
- Control effect (%) of B applied alone (B) ([8]; B 300 g a.i./ha): 18.4%
- Control effect (%) of B applied alone (B) ([9]; B 300 g a.i./ha): 37.8%

Structure (SMILES): CC(C)N(C(=O)COc1nnc(C(F)(F)F)s1)c1ccc(F)cc1 [flufenacet]
- Control effect (%) of B applied alone (B) ([3]; B 150 g a.i./ha): 45.6%

Structure (SMILES): CNC1=C(c2cccc(C(F)(F)F)c2)C(=O)C(c2ccccc2)O1 (stereo not drawn) [flurtamone]
- Control effect (%) of B applied alone (B) ([7]; B 75 g a.i./ha): 56.7%

Structure (SMILES): CP(=O)(O)CCC(N)C(=O)O (stereo not drawn) [glufosinate ammonium]
- Control effect (%) of B applied alone (B) ([10]; B 300 g a.i./ha): 23.1%
- Control effect (%) of B applied alone (B) ([9]; B 300 g a.i./ha): 57.8%

Structure (SMILES): CP(=O)(O)CC[C@H](N)C(=O)O.N [glufosinate-P-ammonium]
- Control effect (%) of B applied alone (B) ([10]; B 150 g a.i./ha): 21.4%

Structure (SMILES): O=C(O)CNCP(=O)(O)O [glyphosate]
- Control effect (%) of B applied alone (B) ([9]; B 450 g a.i./ha): 51.2%

Structure (SMILES): Cn1[nH]c(C2CC2)c(C(=O)c2ccc(C(F)(F)F)c(N3CCCCC3=O)c2Cl)c1=O [huanbifucaotong]
- Control effect (%) of B applied alone (B) ([2]; B 60 g a.i./ha): 27.4%

Structure (SMILES): Cc1ccc2c(c1)[C@H](Nc1nc(N)nc(C(C)F)n1)[C@@H](C)C2 (stereo partly drawn) [indaziflam]
- Control effect (%) of B applied alone (B) ([11]; B 15 g a.i./ha): 49.3%

Structure (SMILES): CS(=O)(=O)c1cc(C(F)(F)F)ccc1C(=O)c1cnoc1C1CC1 [isoxaflutole]
- Control effect (%) of B applied alone (B) ([2]; B 15 g a.i./ha): 41.3%

Structure (SMILES): CN(C(=O)COc1nc2ccccc2s1)c1ccccc1 [mefenacet]
- Control effect (%) of B applied alone (B) ([3]; B 150 g a.i./ha): 46.4%

Structure (SMILES): C[n+]1ccc(-c2cc[n+](C)cc2)cc1 [paraquat dichloride]
- Control effect (%) of B applied alone (B) ([8]; B 150 g a.i./ha): 35.7%
- Control effect (%) of B applied alone (B) ([9]; B 225 g a.i./ha): 48.4%

Structure (SMILES): CCC(CC)Nc1c([N+](=O)[O-])cc(C)c(C)c1[N+](=O)[O-] [pendimethalin]
- Control effect (%) of B applied alone (B) ([5]; B 150 g a.i./ha): 43.2%

Structure (SMILES): O=C(Nc1ccc(F)cc1)c1cccc(Oc2cccc(C(F)(F)F)c2)n1 [picolinafen]
- Control effect (%) of B applied alone (B) ([7]; B 45 g a.i./ha): 44.4%

Structure (SMILES): CCCOCCN(C(=O)CCl)c1c(CC)cccc1CC [pretilachlor]
- Control effect (%) of B applied alone (B) ([3]; B 180 g a.i./ha): 51.2%

Structure (SMILES): CCCN(CCC)C(=O)SCc1ccccc1 [prosulfocarb]
- Control effect (%) of B applied alone (B) [12]: 32.6%

Structure (SMILES): Cn1nc(C(F)(F)F)c(CS(=O)(=O)C2=NOC(C)(C)C2)c1OC(F)F [pyroxasulfone]
- Control effect (%) of B applied alone (B) ([3]; B 60 g a.i./ha): 57.6%

Structure (SMILES): COC(=O)[C@@H](C)Oc1ccc(Oc2cnc3cc(Cl)ccc3n2)cc1 [quizalofop-P-methyl]
- Control effect (%) of B applied alone (B) ([6]; B 15 g a.i./ha): 41.7%

Structure (SMILES): CCc1cccc(C)c1N(C(=O)CCl)[C@@H](C)COC [s-metolachlor]
- Control effect (%) of B applied alone (B) ([3]; B 150 g a.i./ha): 31.3%

Structure (SMILES): CCC/C(=N\OCC)C1=C(O)CC(CC(C)SCC)CC1=O (stereo not drawn) [sethoxydim]
- Control effect (%) of B applied alone (B) ([6]; B 45 g a.i./ha): 36.7%

Structure (SMILES): Cc1nn(C)cc1C(=O)Oc1c(C(=O)c2ccc(C(F)(F)F)cc2S(C)(=O)=O)c(C)nn1C [shuangzuocaotong]
- Control effect (%) of B applied alone (B) ([2]; B 15 g a.i./ha): 35.9%

Structure (SMILES): CS(=O)(=O)c1ccc(C(=O)C2C(=O)CCCC2=O)c(Cl)c1COCC1CCCO1 (stereo not drawn) [tefuryltrione]
- Control effect (%) of B applied alone (B) ([2]; B 30 g a.i./ha): 21.5%

Structure (SMILES): CS(=O)(=O)c1ccc(C(=O)C2C(=O)CCCC2=O)c(Cl)c1COCC(F)(F)F [tembotrione]
- Control effect (%) of B applied alone (B) ([2]; B 15 g a.i./ha): 31.7%

Structure (SMILES): Cc1c(C(=O)c2cnn(C)c2O)ccc(S(C)(=O)=O)c1C1=NOCC1 [topramezone]
- Control effect (%) of B applied alone (B) ([2]; B 7.5 g a.i./ha): 38.5%

Structure (SMILES): Cc1cc(C)cc(OCC(C)Nc2nc(N)nc(C(C)(C)F)n2)c1 (stereo not drawn) [triaziflam]
- Control effect (%) of B applied alone (B) ([11]; B 30 g a.i./ha): 42.1%

— patent US20230111310A1, “CARBOXYLIC ACID DERIVATIVE-SUBSTITUTED IMINO ARYL COMPOUND, PREPARATION METHOD THEREFOR, HERBICIDAL COMPOSITION AND USE THEREOF” (Qingdao Kingagroot Chemical Compound Co., Ltd., priority 2020, published 2023)
